This note sets out measurements from patent US8703750B2, “Mixtures and methods for the induction of resistance in plants” (priority 2004, dated 2014).

Like-named read-outs stand apart in the source and are kept apart here.

One series relates to Plasmopara viticola. The note with it: in vivo. Here is the method:
After remaining 7 days in a conditioned environment, the plants were infected on the lower side with an aqueous suspension of Plasmorpara viticola spores (200,000 spores per cm^3).
The plants were kept in a humidity saturated environment, at 21° C., for the incubation period of the fungus and, at the end of this period (7 days), the fungicidal activity is evaluated according to an evaluation percentage scale from 100 (healthy plant) to 0 (completely infected plant).
E is the expected fungicidal activity, in the absence of synergetic effects, from a blend obtained by mixing g.x of the compound X with g.y of the compound Y;
x is the activity of compound X when used alone at a dose of g.x;
y is the activity of compound Y when used alone at a dose of g.y.
When the fungicidal activity found experimentally is greater than the value of E, said activity should be considered as being a synergetic effect.

The subject of series [1] is cultivar Borlotto of Vigevano bean plants. Format: in vivo, bean plant. More on the design: key: 100 = healthy plant, 0 = completely necrotic/decoloured. As for the experimental part: After 7 days in a conditioned environment, the intensity of the necrosis or leaf decolouring is evaluated with an evaluation scale from 100 (healthy plant) to 0 (plant completely infected with necrosis or decoloured).

A further series has as its system cultivar Merlot vines. The series is described as follows: Undesired effects (necrosis or leaf decolouring) on vines in the Plasmopara viticola greenhouse test. The note with it: in vivo.
The next series concerns Peronospora tabacina. Nature of the series: Control of Peronospora Tabacina on tobacco in preventive leaf application (greenhouse test). Format: in vivo. Here is the method: After remaining 7 days in a conditioned environment, the plants were infected on the lower side with an aqueous suspension of Peronospora Tabacina spores (200,000 spores per cm^3).
After remaining 24 hours in a humidity saturated environment, at 21° C., the plants were transferred to another conditioned environment for the incubation period of the fungus and, at the end of this period (7 days), the fungicidal activity is evaluated according to an evaluation percentage scale from 100 (healthy plant) to 0 (completely infected plant).

Series [2] has as its system cultivar Burley tobacco plants. The note with it: in vivo. As for the experimental part:
Leaves of cultivar Burley tobacco plants, grown in vases, in a conditioned environment (20±1° C., 70% relative humidity), were treated by spraying both sides of the leaves with the blends in question dispersed in an aqueous solution containing 0.3% of tween 20.
Undesired effects refer to the appearance of necrosis or leaf decolouring.

[3] abbreviates: 125 ppm of each component, 7 days after leaf spraying, bean plant.

Description for cultivar Merlot vines: Leaves of cultivar Merlot vines, grown in vases, in a conditioned environment (20±1° C., 70% relative humidity), were treated by spraying both sides of the leaves with the blends in question dispersed in an aqueous solution containing 0.3% of tween 20.

FeNH4SO4: in the series with Plasmopara viticola, the “Activity (y)” value came to 18.
Still for that read-out and setting: then `[Cl-].[Cl-].[Cu+2].[Cu+2].[Cu+2].[Cu+2].[OH-].[OH-].[OH-].[OH-].[OH-].[OH-]` [Tetracopper oxychloride], with 28.
Consider `O=C(O)c1ccccc1[O-].O=C(O)c1ccccc1[O-].[Cu+2]` [Cu^2+ SA, copper (II) salt of salicylic acid], for which, in series [1] (in vivo), the Leaf decolouring worked out at 5 and the Leaf necrosis is 55.
In the case of “copper phthalocyanine [Cu (II) Phthalocyanine]”, in the series on Plasmopara viticola, the “Activity (y)” value is given as 10. The “Undesired effects” value in the series with cultivar Merlot vines was found to be 0.
`[Fe+2].c1ccc2c(c1)-c1nc-2nc2[n-]c(nc3nc(nc4[n-]c(n1)c1ccccc41)-c1ccccc1-3)c1ccccc21` [Fe (II) phthalocyanine, iron phthalocyanine]: in the series on Plasmopara viticola, the “Activity (y)” value worked out at 14.
For `[Cl-].[Cu+2].[Cu+2].[OH-].[OH-].[OH-]` [Cu oxychloride, cuprum oxychloride], in the series on Plasmopara viticola, the “Activity (y)” value is 18.
Regarding `O=c1ccc2cc(O[C@@H]3O[C@H](CO)[C@@H](O)[C@H](O)[C@H]3O)c(O)cc2o1` [Esculine, esculin], the “Activity (y)” value in the series on Plasmopara viticola amounted to 10.
On the same count and under the same terms, to Fe(III) glutamate belongs 16.
In the case of `O=S(=O)([O-])[O-].[Fe+2]` [FeSO4, iron sulphate], the “Activity (y)” value in the series on Peronospora tabacina (in vivo) is reported as 15; with Plasmopara viticola, 40.
Turning to silicic acid, the “Activity (y)” value with Plasmopara viticola stood at 14.
For `O=C(O)c1cc(Cl)nc(Cl)c1` [INA, 2,6-dichloroisonicotinic acid, reference compound], in series [1] (setting [3]), the Leaf decolouring was determined as 10 and the Leaf necrosis is on record as 50.
Turning to `[O]=[Zn]` [ZnO, zinc oxide], the entries for the “Activity (y)” value with Peronospora tabacina (in vivo) and with Plasmopara viticola were 15 and 30, respectively.
Regarding `O=C(O)c1ccccc1[O-].O=C(O)c1ccccc1[O-].[Cu+2]` [Cu^2+SA2, copper (II) salt of salicylic acid], in series [1] (in vivo), the Leaf decolouring is listed as 5 and the Leaf necrosis is 42.
`O=C1NS(=O)(=O)c2ccccc21` [Saccharin, saccharin]: in the series on Plasmopara viticola, the “Activity (y)” value was 30.
In series [1] (setting [3]), `CC(N)CC(=O)O` (stereo not drawn) [BABA, β-aminobutyric acid, reference compound] showed a Leaf decolouring of 15 and a Leaf necrosis of 30.
For the compound `O=C([O-])[C@H](O)[C@@H](O)[C@H](O)[C@H](O)CO.O=C([O-])[C@H](O)[C@@H](O)[C@H](O)[C@H](O)CO.[Fe+2]` [Fe (II) gluconate], in the series on Plasmopara viticola, the “Activity (y)” value is on record as 28.
Still for that read-out and setting: to `[C-]#N.[C-]#N.[C-]#N.[C-]#N.[C-]#N.[C-]#N.[C-]#N.[C-]#N.[C-]#N.[C-]#N.[C-]#N.[C-]#N.[C-]#N.[C-]#N.[C-]#N.[C-]#N.[C-]#N.[C-]#N.[Fe+2].[Fe+2].[Fe+2].[Fe+3].[Fe+3].[Fe+3].[Fe+3]` [Prussian blue] belongs 13; to `O=c1ccc2ccccc2o1` [Cumarine], 10.
Regarding titanium dioxide [TiO2], in series [2], the Undesired effects worked out at 0. The “Activity (y)” value was found to be 5 in the series on Peronospora tabacina (Table 5, compound alone at dose g.y ppm Equivalent Metal: TiO2 24, FeSO4 28, ZnSO4 33, CuSO4 32, ZnO 33) and 24 in the series with Plasmopara viticola.
Take `O=S(=O)([O-])[O-].[Cu+2]` [CuSO4, copper sulphate]: the “Activity (y)” value is recorded as 45 in the series with Peronospora tabacina (in vivo) and 48 in the series with Plasmopara viticola.
Turning to `[Cu+2].[OH-].[OH-]` [Cu hydroxide, cuprum hydroxyde], the “Activity (y)” value with Plasmopara viticola is 34.
For the compound `O=S(=O)([O-])[O-].[Zn+2]` [ZnSO4, zinc sulphate], the results for the “Activity (y)” value with Peronospora tabacina (in vivo) and in the series on Plasmopara viticola were 20 and 22, respectively.
